Data as given in US12152020B2, “Pesticidally active azole-amide compounds” (SYNGENTA PARTICIPATIONS AG, priority 2018, dated 2024).

What was measured:
Format in all cases: in vivo
[1] = tested on: Spodoptera littoralis (Egyptian Cotton Leaf Worm); assay: Example B9: Spodoptera littoralis, cotton leaf discs sprayed, L1 larvae; conditions: foliar, 72 h, application rate of 200 ppm, five L1 larvae, 3 days after infestation, in comparison to untreated samples, read-out: control in at least one of the categories (mortality, anti-feedant effect, or growth inhibition)
Summary of the method: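 Cotton leaf discs on agar sprayed with aqueous solutions made from 10′000 ppm DMSO stocks, dried, then infested with five L1 larvae. Mortality, anti-feeding and growth inhibition assessed against untreated samples 3 days after infestation; control counted when any category exceeded untreated.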

[2] = tested on: Plutella xylostella (Diamond Back Moth); assay: Example B5: Plutella xylostella, artificial diet in 24-well plates, eggs; conditions: 192 h, application rate of 200 ppm, 8 days after infestation, in comparison to untreated samples, read-out: effect in at least one of the two categories (mortality or growth inhibition)
Summary of the method: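 Artificial diet in 24-well plates treated with aqueous test solutions made from 10′000 ppm DMSO stocks, dried, then infested with Plutella eggs. Mortality and growth inhibition scored against untreated samples 8 days after infestation.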

[3] = tested on: Tetranychus urticae (Two-Spotted Spider Mite); assay: Example B11: Tetranychus urticae feeding/contact activity, bean leaf discs; conditions: foliar, 192 h
Procedure: Example B11: Tetranychus urticae (Two-Spotted Spider Mite): Feeding/Contact Activity
Bean leaf discs on agar in 24-well microtiter plates were sprayed with aqueous test solutions prepared from 10′000 ppm DMSO stock solutions. After drying the leaf discs were infested with a mite population of mixed ages. The samples were assessed for mortality on mixed population (mobile stages) 8 days after infestation.

[4] = tested on: Myzus persicae (Green Peach Aphid); assay: Example B8: Myzus persicae intrinsic activity, sucrose solution under Parafilm, 24-well; conditions: 120 h, test rate of 12 ppm, 5 days after infestation
From the text: Example B8: Myzus persicae (Green Peach Aphid): Intrinsic Activity
Test compounds prepared from 10′000 ppm DMSO stock solutions were applied by pipette into 24-well microtiter plates and mixed with sucrose solution. The plates were closed with a stretched Parafilm. A plastic stencil with 24 holes was placed onto the plate and infested pea seedlings were placed directly on the Parafilm. The infested plate was closed with a gel blotting paper and another plastic stencil and then turned upside down. The samples were assessed for mortality 5 days after infestation.

[5] = tested on: Chilo suppressalis (Striped Rice Stemborer); assay: Example B4: Chilo suppressalis, artificial diet, L2 larvae; conditions: 144 h, application rate of 200 ppm, 6 days after infestation, in comparison to untreated samples, read-out: control in at least one of the categories (mortality, anti-feedant effect, or growth inhibition)
Summary of the method: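 Artificial diet was treated with aqueous dilutions made from 10'000 ppm DMSO stocks, dried, then infested with L2 larvae at 6–8 per well. Mortality, antifeedant effect and growth inhibition were assessed against untreated samples 6 days after infestation.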

[6] = tested on: Plutella xylostella (Diamondback Moth); assay: Example B14: Plutella xylostella, artificial diet in 96-well plates, eggs; conditions: 216 h, application rate of 500 ppm, 9 days after infestation
Summary of the method: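 Artificial diet in microtiter wells treated with aqueous dilutions of DMSO stocks, dried, then infested with ~30 eggs per well; hatching L1 larvae feed on treated diet. Mortality scored 9 days after infestation.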

[7] = tested on: Diabrotica balteata (Corn Root Worm); assay: Example B1: Diabrotica balteata, maize sprouts sprayed, L2 larvae; conditions: 96 h, application rate of 200 ppm, 4 days after infestation, in comparison to untreated samples, read-out: effect in at least one of the two categories (mortality or growth inhibition)
Summary of the method: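 Maize sprouts on agar sprayed with aqueous test solutions made from 10′000 ppm DMSO stocks, dried, then infested with 6–10 L2 larvae per well. Mortality and growth inhibition scored against untreated samples 4 days after infestation.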

[8] = tested on: Spodoptera littoralis (Egyptian Cotton Leaf Worm); assay: Example B10: Spodoptera littoralis, uptake by lettuce roots from agar, eggs; conditions: 144 h, test rate of 12.5 ppm, lettuce root uptake, 6 days after infestation, in comparison to untreated samples, read-out: effect in at least one of the three categories (mortality, anti-feeding, or growth inhibition)
From the text: Example B10: Spodoptera littoralis (Egyptian Cotton Leaf Worm)
Test compounds were applied by pipette from 10′000 ppm DMSO stock solutions into 24-well plates and mixed with agar. Lettuce seeds were placed onto the agar and the multi well plate was closed by another plate which contained also agar. After 7 days the compound was absorbed by the roots and the lettuce grew into the lid plate. The lettuce leaves were then cut off into the lid plate. Spodoptera eggs were pipetted through a plastic stencil onto a humid gel blotting paper and the lid plate was closed with it. The samples were assessed for mortality, anti-feedant effect and growth inhibition in comparison to untreated samples 6 days after infestation.
The following compounds gave an effect of at least 80% in at least one of the three categories (mortality, anti-feeding, or growth inhibition) at a test rate of 12.5 ppm: • P3, P15, P32

[9] = tested on: Myzus persicae (Green Peach Aphid); assay: Example B6: Myzus persicae feeding/contact activity, sunflower leaf discs; conditions: foliar, 144 h, application rate of 200 ppm, aphid population of mixed ages, 6 days after infestation
Procedure: Example B6: Myzus persicae (Green Peach Aphid): Feeding/Contact Activity
(§1) Sunflower leaf discs were placed onto agar in a 24-well microtiter plate and sprayed with aqueous test solutions prepared from 10′000 ppm DMSO stock solutions. After drying, the leaf discs were infested with an aphid population of mixed ages. The samples were assessed for mortality 6 days after infestation.

[10] = tested on: Myzus persicae (Green Peach Aphid); assay: Example B13: Myzus persicae, sucrose solution under Parafilm, 96-well; conditions: 120 h, application rate of 50 ppm, 5 days after infestation
From the text: Example B13: Myzus persicae (Green Peach Aphid)
Test compounds prepared from 10′000 ppm DMSO stock solutions were applied by a liquid handling robot into 96-well microtiter plates and mixed with a sucrose solution. Parafilm was stretched over the 96-well microtiter plate and a plastic stencil with 96 holes was placed onto the plate. Aphids were sieved into the wells directly onto the Parafilm. The infested plates were closed with a gel blotting card and a second plastic stencil and then turned upside down. The samples were assessed for mortality 5 days after infestation.

[11] = tested on: Euschistus heros (Neotropical Brown Stink Bug); assay: Example B2: Euschistus heros, soybean leaves sprayed, N2 nymphs; conditions: 120 h, application rate of 200 ppm, 5 days after infestation, in comparison to untreated samples, read-out: effect in at least one of the two categories (mortality or growth inhibition)
Procedure: Example B2: Euschistus heros (Neotropical Brown Stink Bug)
Soybean leaves on agar in 24-well microtiter plates were sprayed with aqueous test solutions prepared from 10′000 ppm DMSO stock solutions. After drying the leaves were infested with N2 nymphs. The samples were assessed for mortality and growth inhibition in comparison to untreated samples 5 days after infestation.
The following compounds gave an effect of at least 80% in at least one of the two categories (mortality or growth inhibition) at an application rate of 200 ppm: • P1, P2, P3, P7, P11, P12, P16, P17, P18, P22, P25, P29, P32, P33, P37, P38

[12] = tested on: Thrips tabaci (Onion thrips); assay: Example B12: Thrips tabaci feeding/contact activity, sunflower leaf discs; conditions: foliar, 144 h, application rate of 200 ppm, thrips population of mixed ages, 6 days after infestation
Procedure: Example B12: Thrips tabaci (Onion thrips): Feeding/Contact Activity
as §1, with “on” for “onto”, “in” for “in a”, “plates” for “plate”, “drying” for “drying,”, “a thrips” for “an aphid”

[13] = tested on: Myzus persicae (Green Peach Aphid); assay: Example B7: Myzus persicae systemic activity, pea seedling roots in test solution; conditions: 144 h, test rate of 24 ppm, 6 days after placing seedlings into test solutions
Procedure: Example B7: Myzus persicae (Green Peach Aphid): Systemic Activity
Roots of pea seedlings infested with an aphid population of mixed ages were placed directly into aqueous test solutions prepared from 10′000 DMSO stock solutions. The samples were assessed for mortality 6 days after placing seedlings into test solutions.

COCCOc1nc(C(C)NC(=O)c2cc(C(F)(F)F)cc(C(F)(F)F)c2)n(-c2ncccn2)n1 (stereo not shown) [Compound P36, N-[1-[5-(2-methoxyethoxy)-2-pyrimidin-2-yl-1,2,4-triazol-3-yl]ethyl]-3,5-bis(trifluoromethyl) benzamide]
≥ 80%: percent control (mortality, anti-feedant effect or growth inhibition) at 200 ppm [1] | percent effect (mortality or growth inhibition) at 200 ppm [2] | mortality at 200 ppm [3] | mortality at 12 ppm [4] | percent control (mortality, anti-feedant effect or growth inhibition) at 200 ppm [5]

CC(c1nc(Br)nn1-c1ncccn1)N(C)C(=O)c1cc(C(F)(F)F)cc(C(F)(F)F)c1 (stereo not shown) [Compound P3, N-[1-(5-bromo-2-pyrimidin-2-yl-1,2,4-triazol-3-yl)ethyl]-N-methyl-3,5-bis(trifluoromethyl)benzamide]
≥ 80%: mortality at 500 ppm [6] | percent control (mortality, anti-feedant effect or growth inhibition) at 200 ppm [1] | percent effect (mortality or growth inhibition) at 200 ppm [2] | percent effect (mortality or growth inhibition) at 200 ppm [7] | percent effect (mortality, anti-feeding or growth inhibition) at 12.5 ppm [8] | mortality at 200 ppm [9] | mortality at 50 ppm [10] | percent effect (mortality or growth inhibition) at 200 ppm [11] | mortality at 12 ppm [4] | percent control (mortality, anti-feedant effect or growth inhibition) at 200 ppm [5]

CC(c1nc(Cl)nn1-c1ncccn1)N(C)C(=O)c1cc(C(F)(F)F)cc(C(F)(F)F)c1 (stereo not shown) [Compound P15, N-[1-(5-chloro-2-pyrimidin-2-yl-1,2,4-triazol-3-yl)ethyl]-N-methyl-3,5-bis(trifluoromethyl)benzamide]
≥ 80%: mortality at 500 ppm [6] | percent control (mortality, anti-feedant effect or growth inhibition) at 200 ppm [1] | percent effect (mortality or growth inhibition) at 200 ppm [2] | percent effect (mortality or growth inhibition) at 200 ppm [7] | percent effect (mortality, anti-feeding or growth inhibition) at 12.5 ppm [8] | mortality at 50 ppm [10]

CNc1nc(C(C)N(C)C(=O)c2cc(C(F)(F)F)cc(C(F)(F)F)c2)n(-c2ncccn2)n1 (stereo not shown) [Compound P18, N-methyl-N-[1-[5-(methylamino)-2-pyrimidin-2-yl-1,2,4-triazol-3-yl]ethyl]-3,5-bis(trifluoromethyl) benzamide]
≥ 80%: mortality at 500 ppm [6] | percent control (mortality, anti-feedant effect or growth inhibition) at 200 ppm [1] | mortality at 200 ppm [12] | percent effect (mortality or growth inhibition) at 200 ppm [2] | percent effect (mortality or growth inhibition) at 200 ppm [7] | mortality at 200 ppm [9] | mortality at 50 ppm [10] | percent effect (mortality or growth inhibition) at 200 ppm [11] | mortality at 12 ppm [4]

CC(c1nc(N)nn1-c1ncccn1)N(C)C(=O)c1cc(C(F)(F)F)cc(C(F)(F)F)c1 (stereo not shown) [Compound P7, N-[1-(5-amino-2-pyrimidin-2-yl-1,2,4-triazol-3-yl)ethyl]-N-methyl-3,5-bis(trifluoromethyl)benzamide]
≥ 80%: mortality at 500 ppm [6] | percent control (mortality, anti-feedant effect or growth inhibition) at 200 ppm [1] | mortality at 200 ppm [12] | percent effect (mortality or growth inhibition) at 200 ppm [2] | percent effect (mortality or growth inhibition) at 200 ppm [7] | mortality at 200 ppm [9] | mortality at 50 ppm [10] | percent effect (mortality or growth inhibition) at 200 ppm [11] | mortality at 12 ppm [4]

CC(=O)Nc1nc(C(C)N(C)C(=O)c2cc(C(F)(F)F)cc(C(F)(F)F)c2)n(-c2ncccn2)n1 (stereo not shown) [Compound P17, N-[1-(5-acetamido-2-pyrimidin-2-yl-1,2,4-triazol-3-yl)ethyl]-N-methyl-3,5-bis(trifluoromethyl) benzamide]
≥ 80%: mortality at 500 ppm [6] | percent control (mortality, anti-feedant effect or growth inhibition) at 200 ppm [1] | mortality at 200 ppm [12] | mortality at 24 ppm [13] | percent effect (mortality or growth inhibition) at 200 ppm [2] | percent effect (mortality or growth inhibition) at 200 ppm [7] | mortality at 200 ppm [9] | mortality at 50 ppm [10] | percent effect (mortality or growth inhibition) at 200 ppm [11] | mortality at 12 ppm [4]

CC(c1nc(N=C(c2ccccc2)c2ccccc2)nn1-c1ncccn1)N(C)C(=O)c1cc(C(F)(F)F)cc(C(F)(F)F)c1 (stereo not shown) [Compound P22, N-[1-[5-(benzhydrylideneamino)-2-pyrimidin-2-yl-1,2,4-triazol-3-yl]ethyl]-N-methyl-3,5-bis(trifluoromethyl)benzamide]
≥ 80%: mortality at 500 ppm [6] | percent control (mortality, anti-feedant effect or growth inhibition) at 200 ppm [1] | mortality at 200 ppm [12] | percent effect (mortality or growth inhibition) at 200 ppm [2] | percent effect (mortality or growth inhibition) at 200 ppm [7] | mortality at 200 ppm [9] | mortality at 50 ppm [10] | percent effect (mortality or growth inhibition) at 200 ppm [11] | mortality at 12 ppm [4]

CC(NC(=O)c1cc(Cl)cc(OC(F)(F)F)c1)c1nc(Br)nn1-c1ncccn1 (stereo not shown) [Compound P32, N-[1-(5-bromo-2-pyrimidin-2-yl-1,2,4-triazol-3-yl)ethyl]-3-chloro-5-(trifluoromethoxy)ben zamide]
≥ 80%: mortality at 500 ppm [6] | percent control (mortality, anti-feedant effect or growth inhibition) at 200 ppm [1] | percent effect (mortality or growth inhibition) at 200 ppm [2] | percent effect (mortality or growth inhibition) at 200 ppm [7] | percent effect (mortality, anti-feeding or growth inhibition) at 12.5 ppm [8] | mortality at 50 ppm [10] | percent effect (mortality or growth inhibition) at 200 ppm [11] | mortality at 12 ppm [4] | percent control (mortality, anti-feedant effect or growth inhibition) at 200 ppm [5]
